Values belong to the compound of their own block, whether it stands above or below them.
Columns and labels:
[1] = test system: Wild-type Arabidopsis thaliana; experiment: Dose-response analysis of lateral root density and root length; assay type: in vivo; conditions: dose-response, FIG. 3
Description: FIG. 3: Dose-response analysis of class 1 (upper panel) and class 2 (lower panel) activators. Wild-type Arabidopsis thaliana seeds were germinated under standard conditions on agar plates. After 3 days of germination, seedlings were transferred to agar plates containing compound at different concentrations. Lateral root density was measured 10 days after germination. Bars represent standard errors.
FIG. 4: Dose-response analysis of A2, A11, A12, A14 and NAA. Wild-type Arabidopsis thaliana seeds were germinated under standard conditions on agar plates. After 3 days of germination, seedlings were transferred to agar plates containing compound at different concentrations and 1% DMSO. Plants transferred to agar plates containing 1% DMSO and no compound were used as controls. Lateral root density (left panels) and root length (right panels) were measured 10 days after germination. Bars represent standard errors.
For further phenotypic analysis, all plants were grown on vertically oriented square plates (Greiner Labortechnik, Austria) with solid medium derived from standard MS medium under the same conditions. 3 DAG plants were transferred to medium supplemented with compounds and were left to grow for another 7 days. After this, root length and number of LRs were counted using ImageJ 1.34 freeware.
As a subsequent step, the phenotypic effect of the 16 selected activators was determined in a dose-response analysis in which LR density (number of LRs per cm) was quantified (FIG. 3). Based upon potency and structure, two different classes of activators could be identified.

auxin signaling mutants = experiment: Effect of activators on lateral root density of auxin signaling mutants (Table 2); assay type: in vivo, Arabidopsis thaliana
Description: Afb1, Afb2, Afb3 and the triple mutant Tirlafb2afb3 were described by Dhamasiri et al. (2005). Tir1 was described by Ruegger et al., (1998); 1aa28 by Rogg et al., (2001); Tir7-1 by Ruegger et al., (1997); the Cyp79b2b3 double mutant by Ljung et al. (2005); the arf7arf19 double mutant by Fukaki et al., (2005); Aux1 by Bennett et al., (1996); Xbat32 by Nodzon et al., (2004), Axr1-12 by Timpte et al., (1995), Slr1 by Fukaki et al., 2002 and Axr3-1 by Collet et al., (2000) and the mutants were obtained from the publishing authors.
For phenotypic analysis, all mutants were grown on vertically oriented square plates (Greiner Labortechnik, Austria) with solid medium derived from standard MS medium. The plates were put in a growth chamber under continuous light (110 μE.m2.s1 photosynthetically active radiation, supplied by cool-white fluorescent tungsten tubes; Osram) at 22° C. Three days after germination, the mutant plants were transferred to medium supplemented with compounds and were left to grow for another 7 days. After this, root length and number of lateral roots were counted using ImageJ 1.34 freeware.

[2] = test system: genes involved in auxin biosynthesis, auxin transport, auxin signaling and cell cycle; experiment: Q-PCR transcript profiling of roots after compound treatment; assay type: in vivo, Arabidopsis thaliana; conditions: 30 μM; 6 hrs or 24 hrs treatment
Description: FIG. 5: Transcript profiling of roots of wild-type Arabidopsis thaliana plants after 6 hrs or 24 hrs treatment with A2 (upper panel), A14 (middle panel) or A11 (lower panel) at a concentration of 30 μM.
RNA was extracted with the RNeasy kit. Poly(dT) cDNA was prepared from […] of total RNA with Superscript III reverse transcriptase (Invitrogen) and quantified on an LightCycler 480 apparatus (Roche) with the SYBR Green I Master kit (Roche) according to the manufacturers instructions. Target quantifications were performed with specific primer pairs designed with the Beacon Designer 4.0 (Premier Biosoft International). All PCRs were performed in triplicate. […] The primers used to quantify gene expression levels were: […]
Using Q-PCR, the expression of selected genes involved in auxin biosynthesis, auxin transport, auxin signaling and cell cycle was analyzed in response to compound treatment (FIG. 5).

[3] = test system: auxin receptor mutant tir1; experiment: Effect of activators on the auxin receptor mutant tir1 compared with wild type; assay type: in vivo, Arabidopsis thaliana; conditions: tir1 mutant vs wild type, FIG. 13
Description: FIG. 13: Effect of activators on the auxin receptor mutant TIR1 compared with wild type.

auxin receptor TIR1 = target: T1, auxin receptor TIR1 (Arabidopsis thaliana, UniProt Q38825+Q570C0); experiment: In vitro pull-down binding assay to auxin receptor TIR1; conditions: in vitro binding assay (FIG. 2)
T1 construct: made in house; host or cells: wheat germ in vitro transcription/translation (IVTT) extract
Description: FIG. 2: In vitro binding assay to analyze binding of the 16 selected activators to the auxin receptor TIR1.
Pull-down assays with wheatgerm-expressed TIR1-Myc were performed by combining […] of IVTT reaction extract with […] of biotinylated domain II peptide and […] of EB containing 1 mg/ml BSA with auxin treatments as indicated. The assays were incubated for 30 min at 4° C. and recovered on streptavidin-agarose. The final processing of pull-down assays including electrophoresis, western transfer and blotting with anti-Myc antibodies has been described in Kepinski and Leyser, 2004.
Earlier studies have shown that sirtinol is metabolized in vivo to NAA (Dai et al., 2005) while IAA, NAA, 2,4-D act by binding directly to the auxin-receptor TIR1 (Kepinski and Leyser, 2005).

T1 sequence (Q570C0 whole entry, other chains not shown): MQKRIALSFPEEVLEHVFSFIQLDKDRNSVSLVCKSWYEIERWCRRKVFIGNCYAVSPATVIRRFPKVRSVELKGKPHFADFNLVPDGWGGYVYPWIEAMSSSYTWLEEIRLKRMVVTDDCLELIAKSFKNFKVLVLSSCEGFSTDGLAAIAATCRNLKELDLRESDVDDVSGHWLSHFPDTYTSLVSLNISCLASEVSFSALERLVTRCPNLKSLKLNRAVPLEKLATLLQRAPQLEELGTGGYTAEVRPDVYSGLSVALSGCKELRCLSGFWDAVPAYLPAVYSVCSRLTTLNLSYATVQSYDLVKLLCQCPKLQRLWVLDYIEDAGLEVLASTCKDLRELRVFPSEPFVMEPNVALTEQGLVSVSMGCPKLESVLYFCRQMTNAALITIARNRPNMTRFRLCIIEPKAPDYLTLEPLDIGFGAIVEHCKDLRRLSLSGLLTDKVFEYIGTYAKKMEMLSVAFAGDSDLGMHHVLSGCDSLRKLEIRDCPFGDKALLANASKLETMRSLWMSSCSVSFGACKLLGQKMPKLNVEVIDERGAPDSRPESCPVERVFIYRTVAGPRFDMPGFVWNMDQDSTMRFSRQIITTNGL

SMILES: COc1ccccc1CNC(=O)C(C)Sc1ccc(Cl)cc1 (stereo not shown) [A14, 2-[(4-chlorophenyl)thio]-N-(2-methoxybenzyl)propanamide]
potency as activator of LR development (LR density) [1]: most potent activators of class 2 | lateral root density (auxin signaling mutants; Afb1-1, 30 uM): 24.29 LR/cm | lateral root density (auxin signaling mutants; Afb2-1, 30 uM): 22.38 LR/cm | lateral root density (auxin signaling mutants; Afb3-1, 30 uM): 30.09 LR/cm | lateral root density (auxin signaling mutants; Arf7Arf19, 30 uM): 0.00 LR/cm | lateral root density (auxin signaling mutants; Arf16, 30 uM): 32.75 LR/cm | lateral root density (auxin signaling mutants; Arf17, 30 uM): 32.68 LR/cm | lateral root density (auxin signaling mutants; Axrt-12, 30 uM): 34.01 LR/cm | lateral root density (auxin signaling mutants; Cyp79, 30 uM): 33.25 LR/cm | lateral root density (auxin signaling mutants; Iaa28-1, 30 uM): 20.71 LR/cm | lateral root density (auxin signaling mutants; Tir1-1, 30 uM): 0.52 LR/cm | lateral root density (auxin signaling mutants; Tir7-1, 30 uM): 33.41 LR/cm | lateral root density (auxin signaling mutants; TirTM, 30 uM): 0.00 LR/cm | lateral root density (auxin signaling mutants; Xbat32, 30 uM): 10.88 LR/cm | stage of LR initiation at which the effect on gene expression is exerted [2]: early stages of LR initiation (6 h) | TIR1 dependence of the working of the compound [3]: strictly TIR1 dependent

binding to TIR1 (auxin receptor TIR1): could bind to TIR1
SMILES: O=C(O)C1SCCN1c1ccccc1 (stereo not shown) [A15, 3-phenyl-1,3-thiazolidine-2-carboxylic acid]

SMILES: COc1cc(-c2nc3ccccn3c2N=Cc2cccc(Cl)c2Cl)ccc1O [A10, 4-{3-[(2,3-dichlorobenzylidene)amino]imidazo[1,2-a]pyridin-2-yl}-2-methoxyphenol]
lateral root density (auxin signaling mutants; Afb1-1, 3 uM): 11.79 LR/cm | lateral root density (auxin signaling mutants; Afb2-1, 3 uM): 15.90 LR/cm | lateral root density (auxin signaling mutants; Afb3-1, 3 uM): 17.08 LR/cm | lateral root density (auxin signaling mutants; Arf7Arf19, 3 uM): 0.00 LR/cm | lateral root density (auxin signaling mutants; Arf16, 3 uM): 19.95 LR/cm | lateral root density (auxin signaling mutants; Arf17, 3 uM): 10.80 LR/cm | lateral root density (auxin signaling mutants; Axrt-12, 3 uM): 7.90 LR/cm | lateral root density (auxin signaling mutants; Cyp79, 3 uM): 33.08 LR/cm | lateral root density (auxin signaling mutants; Iaa28-1, 3 uM): 0.00 LR/cm | lateral root density (auxin signaling mutants; Tir1-1, 3 uM): 0.77 LR/cm | lateral root density (auxin signaling mutants; Tir7-1, 3 uM): 8.49 LR/cm | lateral root density (auxin signaling mutants; TirTM, 3 uM): 0.00 LR/cm | lateral root density (auxin signaling mutants; Xbat32, 3 uM): 8.37 LR/cm | TIR1 dependence of the working of the compound [3]: strictly TIR1 dependent
